Data as given in ChEMBL document CHEMBL5030545, “Discovery of clinical candidate Sivopixant (S-600918): Lead optimization of dioxotriazine derivatives as selective P2X3 receptor antagonists” (Bioorg Med Chem Lett, 2021).
≈ marks a conversion by molar mass, not a printed value.

Legend:
[1] = Plasma concentration in rat at 3 mg/kg, po measured after 3 hrs; type: ADME, organism-based
[2] = tested on: Rattus norvegicus; test: Analgesic activity in rat model of partial sciatic nerve ligation-induced neuropathic pain assessed as reversal of allodynia at 1 mg/kg, po measured after 3 hrs relative to control; type: functional
[3] = tested on: Rattus norvegicus; test: Analgesic activity in rat model of partial sciatic nerve ligation-induced neuropathic pain assessed as reversal of allodynia at 10 mg/kg, po measured after 3 hrs relative to control; type: functional
[4] = molecular target: T1, P2X purinoceptor 3 (Rattus norvegicus, UniProt P49654); test: Antagonist activity at rat P2X3 receptor
T1 sequence (P49654 whole entry): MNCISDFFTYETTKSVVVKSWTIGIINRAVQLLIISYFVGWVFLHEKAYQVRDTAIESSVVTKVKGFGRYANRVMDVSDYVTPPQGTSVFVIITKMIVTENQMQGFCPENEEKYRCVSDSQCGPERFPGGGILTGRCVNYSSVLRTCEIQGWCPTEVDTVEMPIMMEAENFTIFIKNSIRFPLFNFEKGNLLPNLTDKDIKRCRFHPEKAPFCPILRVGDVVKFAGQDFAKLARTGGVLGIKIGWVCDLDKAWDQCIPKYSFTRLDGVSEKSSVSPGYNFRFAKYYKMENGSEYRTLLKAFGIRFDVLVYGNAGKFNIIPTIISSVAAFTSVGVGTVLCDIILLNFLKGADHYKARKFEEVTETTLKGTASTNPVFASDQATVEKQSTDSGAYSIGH

[5] = Clearance in rat at 1 mg/kg, iv; type: ADME, organism-based; details: in vivo
[6] = tested on: Rattus norvegicus; test: Analgesic activity in rat model of partial sciatic nerve ligation-induced neuropathic pain assessed as reversal of allodynia at 3 mg/kg, po measured after 3 hrs relative to control; type: functional
[7] = Plasma concentration in rat at 10 mg/kg, po measured after 3 hrs; type: ADME, organism-based
[8] = Plasma concentration in rat at 1 mg/kg, po measured after 3 hrs; type: ADME, organism-based
[9] = Half life in rat at 1 mg/kg, iv; type: ADME, organism-based; details: in vivo
[10] = molecular target: Cytochrome P450 3A4 (Homo sapiens, UniProt P08684); test: Inhibition of CYP3A4 (unknown origin); type: ADME
Cytochrome P450 3A4, sequence (P08684 whole entry): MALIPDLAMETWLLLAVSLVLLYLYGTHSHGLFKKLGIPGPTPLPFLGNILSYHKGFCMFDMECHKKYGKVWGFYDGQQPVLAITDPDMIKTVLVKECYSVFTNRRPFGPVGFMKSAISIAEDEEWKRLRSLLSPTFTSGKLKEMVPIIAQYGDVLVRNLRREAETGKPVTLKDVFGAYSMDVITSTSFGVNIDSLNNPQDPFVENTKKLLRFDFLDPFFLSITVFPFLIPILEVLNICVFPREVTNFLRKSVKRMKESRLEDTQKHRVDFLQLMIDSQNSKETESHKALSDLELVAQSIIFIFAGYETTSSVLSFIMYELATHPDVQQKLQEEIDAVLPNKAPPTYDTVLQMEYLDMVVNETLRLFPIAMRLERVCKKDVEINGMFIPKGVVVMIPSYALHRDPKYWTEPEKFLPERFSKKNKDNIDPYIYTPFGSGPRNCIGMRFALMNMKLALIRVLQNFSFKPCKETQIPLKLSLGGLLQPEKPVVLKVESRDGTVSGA

[11] = molecular target: T2, Cytochrome P450 1A2 (Homo sapiens, UniProt P05177); test: Inhibition of CYP1A2 (unknown origin); type: ADME
T2 sequence (P05177 whole entry): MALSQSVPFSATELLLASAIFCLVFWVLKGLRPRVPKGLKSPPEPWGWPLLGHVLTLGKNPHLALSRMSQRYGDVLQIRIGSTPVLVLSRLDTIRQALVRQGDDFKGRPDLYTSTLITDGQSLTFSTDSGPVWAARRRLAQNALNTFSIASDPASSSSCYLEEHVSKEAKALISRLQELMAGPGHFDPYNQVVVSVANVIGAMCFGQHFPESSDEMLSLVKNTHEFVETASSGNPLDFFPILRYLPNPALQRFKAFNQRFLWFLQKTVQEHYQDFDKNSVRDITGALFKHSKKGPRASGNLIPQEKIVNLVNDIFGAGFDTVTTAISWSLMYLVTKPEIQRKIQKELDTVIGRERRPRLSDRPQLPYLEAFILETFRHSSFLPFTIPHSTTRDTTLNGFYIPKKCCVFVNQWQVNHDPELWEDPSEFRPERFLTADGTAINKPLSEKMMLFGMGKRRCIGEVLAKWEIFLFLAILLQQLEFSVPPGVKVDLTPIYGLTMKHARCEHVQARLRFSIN

[12] = Solubility of the compound in JP2 fluid at pH 6.8; type: physicochemical
[13] = molecular target: T3, P2X purinoceptor 7 (Homo sapiens, UniProt Q99572); test: Antagonist activity at P2X7 receptor (unknown origin)
T3 sequence (Q99572 whole entry): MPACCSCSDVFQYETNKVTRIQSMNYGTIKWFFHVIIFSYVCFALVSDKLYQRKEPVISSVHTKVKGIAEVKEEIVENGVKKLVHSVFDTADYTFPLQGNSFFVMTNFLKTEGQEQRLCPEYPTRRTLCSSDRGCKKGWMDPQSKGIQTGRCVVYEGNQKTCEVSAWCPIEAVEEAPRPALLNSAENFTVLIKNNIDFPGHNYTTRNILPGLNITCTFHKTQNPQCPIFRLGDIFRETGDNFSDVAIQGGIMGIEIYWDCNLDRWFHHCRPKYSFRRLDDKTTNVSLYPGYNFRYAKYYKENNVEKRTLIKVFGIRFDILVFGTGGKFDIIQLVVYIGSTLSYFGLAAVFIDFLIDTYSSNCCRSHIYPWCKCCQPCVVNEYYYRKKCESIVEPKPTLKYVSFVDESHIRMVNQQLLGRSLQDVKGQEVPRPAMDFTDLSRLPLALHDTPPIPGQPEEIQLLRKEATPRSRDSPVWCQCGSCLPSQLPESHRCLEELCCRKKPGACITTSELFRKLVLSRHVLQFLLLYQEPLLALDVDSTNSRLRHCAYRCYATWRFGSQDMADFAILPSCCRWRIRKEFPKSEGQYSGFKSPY

[14] = Protein binding in rat plasma assessed as unbound fraction at 1 mg/kg administered as cassette dose; type: ADME, organism-based
[15] = molecular target: Cytochrome P450 2C19 (Homo sapiens, UniProt P33261); test: Inhibition of CYP2C19 (unknown origin); type: ADME
Cytochrome P450 2C19, sequence (P33261 whole entry): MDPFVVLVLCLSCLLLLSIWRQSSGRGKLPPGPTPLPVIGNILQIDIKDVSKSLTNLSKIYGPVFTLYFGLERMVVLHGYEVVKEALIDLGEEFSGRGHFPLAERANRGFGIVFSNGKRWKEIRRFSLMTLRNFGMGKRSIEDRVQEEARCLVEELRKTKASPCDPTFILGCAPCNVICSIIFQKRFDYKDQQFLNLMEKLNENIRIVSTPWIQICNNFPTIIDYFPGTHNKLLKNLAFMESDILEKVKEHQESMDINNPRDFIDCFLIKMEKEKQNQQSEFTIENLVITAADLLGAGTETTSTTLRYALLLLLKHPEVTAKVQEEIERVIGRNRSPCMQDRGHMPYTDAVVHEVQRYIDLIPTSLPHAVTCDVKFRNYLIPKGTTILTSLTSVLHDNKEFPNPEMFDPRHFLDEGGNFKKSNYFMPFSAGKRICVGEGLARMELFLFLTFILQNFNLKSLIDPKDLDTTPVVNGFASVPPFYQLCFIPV

[16] = Oral bioavailability in rat at 1 mg/kg administered as cassette dose; type: ADME, organism-based; details: in vivo
[17] = Cmax in rat at 3 mg/kg, po; type: ADME, organism-based; parameters: route oral, dose 3 mg/kg; details: in vivo
[18] = molecular target: T4, P2X purinoceptor 2 (Homo sapiens, UniProt Q9UBL9); test: Antagonist activity at P2X2 receptor (unknown origin)
T4 sequence (Q9UBL9 whole entry): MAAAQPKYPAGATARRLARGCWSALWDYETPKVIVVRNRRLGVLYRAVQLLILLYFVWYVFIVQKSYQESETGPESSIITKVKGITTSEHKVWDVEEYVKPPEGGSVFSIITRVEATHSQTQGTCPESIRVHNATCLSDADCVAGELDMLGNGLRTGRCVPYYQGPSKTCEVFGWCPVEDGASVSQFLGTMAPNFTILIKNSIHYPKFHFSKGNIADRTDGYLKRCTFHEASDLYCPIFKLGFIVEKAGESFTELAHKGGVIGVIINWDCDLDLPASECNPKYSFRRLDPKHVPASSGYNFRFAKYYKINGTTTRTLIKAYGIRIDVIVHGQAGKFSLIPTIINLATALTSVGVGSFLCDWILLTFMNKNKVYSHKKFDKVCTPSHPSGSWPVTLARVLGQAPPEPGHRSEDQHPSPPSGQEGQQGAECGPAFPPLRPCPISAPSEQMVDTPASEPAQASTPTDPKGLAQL

[19] = Free plasma concentration in rat plasma at 1 mg/kg administered as cassette dose; type: ADME, organism-based; details: in vivo
[20] = molecular target: T5, P2X purinoceptor 1 (Homo sapiens, UniProt P51575); test: Antagonist activity at P2X1 receptor (unknown origin)
T5 sequence (P51575 whole entry): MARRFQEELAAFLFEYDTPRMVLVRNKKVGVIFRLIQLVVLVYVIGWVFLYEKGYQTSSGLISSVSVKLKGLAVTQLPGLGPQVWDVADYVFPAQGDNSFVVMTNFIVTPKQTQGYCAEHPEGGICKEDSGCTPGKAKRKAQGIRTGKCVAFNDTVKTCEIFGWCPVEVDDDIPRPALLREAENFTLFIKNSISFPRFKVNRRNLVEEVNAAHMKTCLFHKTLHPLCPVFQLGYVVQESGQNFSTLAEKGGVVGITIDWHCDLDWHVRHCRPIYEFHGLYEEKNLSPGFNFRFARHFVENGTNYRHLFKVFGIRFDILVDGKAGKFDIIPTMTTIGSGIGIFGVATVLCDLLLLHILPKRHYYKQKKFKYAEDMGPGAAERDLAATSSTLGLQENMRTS

[21] = tested on: Rattus norvegicus; test: Analgesic activity in po dosed rat model of partial sciatic nerve ligation-induced neuropathic pain; type: functional
[22] = Oral bioavailability in rat at 3 mg/kg; type: ADME, organism-based; details: in vivo
[23] = molecular target: T6, P2X purinoceptor 4 (Homo sapiens, UniProt Q99571); test: Antagonist activity at P2X4 receptor (unknown origin)
T6 sequence (Q99571 whole entry): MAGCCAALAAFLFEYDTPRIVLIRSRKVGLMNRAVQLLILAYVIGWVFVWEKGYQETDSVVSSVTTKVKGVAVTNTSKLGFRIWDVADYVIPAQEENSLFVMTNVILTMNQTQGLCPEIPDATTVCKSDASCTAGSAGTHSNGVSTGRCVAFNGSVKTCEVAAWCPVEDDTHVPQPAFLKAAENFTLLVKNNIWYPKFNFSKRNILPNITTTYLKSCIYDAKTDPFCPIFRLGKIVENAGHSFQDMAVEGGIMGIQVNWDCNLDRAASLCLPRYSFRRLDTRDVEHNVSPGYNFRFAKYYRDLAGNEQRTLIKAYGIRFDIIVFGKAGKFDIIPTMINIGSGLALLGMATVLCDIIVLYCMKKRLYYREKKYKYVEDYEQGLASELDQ

[24] = Solubility of the compound in pH 1.2 JP1 fluid; type: physicochemical
[25] = Protein binding in rat plasma assessed as unbound fraction at 3 mg/kg, iv; type: ADME, organism-based
[26] = molecular target: Cytochrome P450 2D6 (Homo sapiens, UniProt P10635); test: Inhibition of CYP2D6 (unknown origin); type: functional
Cytochrome P450 2D6, sequence (P10635 whole entry): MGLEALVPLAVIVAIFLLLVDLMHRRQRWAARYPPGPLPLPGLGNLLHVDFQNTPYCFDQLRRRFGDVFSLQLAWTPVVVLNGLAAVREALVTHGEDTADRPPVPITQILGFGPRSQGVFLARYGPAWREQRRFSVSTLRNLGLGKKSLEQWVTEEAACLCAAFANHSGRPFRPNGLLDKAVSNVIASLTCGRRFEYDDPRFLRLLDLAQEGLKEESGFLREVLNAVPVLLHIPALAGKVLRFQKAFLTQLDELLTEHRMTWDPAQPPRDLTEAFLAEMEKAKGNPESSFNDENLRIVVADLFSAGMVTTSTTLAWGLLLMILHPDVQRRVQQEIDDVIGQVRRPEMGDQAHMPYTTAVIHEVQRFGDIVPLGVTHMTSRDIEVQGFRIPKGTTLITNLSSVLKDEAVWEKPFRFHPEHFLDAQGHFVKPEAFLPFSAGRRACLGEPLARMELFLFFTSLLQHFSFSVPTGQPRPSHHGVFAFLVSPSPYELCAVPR

[27] = AUC in rat at 3 mg/kg, po; type: ADME, organism-based; parameters: dose 3 mg/kg; details: in vivo
[28] = molecular target: Cytochrome P450 2C9 (Homo sapiens, UniProt P11712); test: Inhibition of CYP2C9 (unknown origin); type: ADME
Cytochrome P450 2C9, sequence (P11712 whole entry): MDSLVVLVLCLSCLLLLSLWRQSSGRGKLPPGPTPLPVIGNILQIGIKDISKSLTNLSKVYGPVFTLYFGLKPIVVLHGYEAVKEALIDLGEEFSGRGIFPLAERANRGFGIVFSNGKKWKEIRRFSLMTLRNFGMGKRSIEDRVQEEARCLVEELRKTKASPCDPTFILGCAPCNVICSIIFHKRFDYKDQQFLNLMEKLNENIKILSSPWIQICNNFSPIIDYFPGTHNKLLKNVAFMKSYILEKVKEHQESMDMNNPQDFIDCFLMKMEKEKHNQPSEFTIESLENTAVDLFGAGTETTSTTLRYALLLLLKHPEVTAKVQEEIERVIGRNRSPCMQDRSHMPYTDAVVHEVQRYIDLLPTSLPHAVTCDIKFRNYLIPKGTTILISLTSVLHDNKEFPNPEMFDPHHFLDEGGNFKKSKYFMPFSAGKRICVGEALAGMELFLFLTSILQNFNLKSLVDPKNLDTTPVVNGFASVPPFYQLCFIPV

Row | IC50 [4] [µM] | clearance [5] [mL/min/kg] | half-life [9] [h] | IC50 [10] [µM] | IC50 [11] [µM] | solubility [12] [µg/mL] | IC50 [13] [µM] | fraction unbound [14] | IC50 [15] [µM] | bioavailability [16] [%] | Cmax [17] [ng/mL] | IC50 [18] [µM] | Cp(f) [19] [nM] | IC50 [20] [µM] | bioavailability [22] [%] | IC50 [23] [µM] | solubility [24] [µg/mL] | fraction unbound [25] | IC50 [26] [µM] | Compound | ED50 [21] [mg/kg] | further results
1 | 0.0061 | 2.7 | 1.6 |  |  |  |  |  |  |  |  |  |  |  |  |  |  |  |  | Cc1ccc(Cn2c(Nc3ccc(OC(C)C)c(Cl)c3)nc(=O)n(CCC(=O)O)c2=O)cc1 |  | concentration at 3 h [1]: 2650 nM; Activity [2]: 11%; Activity [3]: 40%; Activity [6]: 23%; concentration at 3 h [7]: 7840 nM; concentration at 3 h [8]: 1320 nM
2 | 0.0077 | 2.2 | 4.4 | > 20 | > 20 | 650 (≈ 1260 µM) | > 30 | 0.012 | > 20 | 87.6 | 1610 | > 30 | 671 | > 30 | 60 | > 30 | 0.8 (≈ 1.56 µM) | 0.012 | > 20 | C[C@@H](Cn1c(=O)[nH]/c(=N\c2ccc(Oc3ccsn3)cc2)n(Cc2ccc(Cl)cc2)c1=O)C(=O)O | 0.4 | AUC [27]: 13700 ng·h/mL; IC50 [28]: > 20 µM
3 | 0.0038 | 5.9 | 4.3 | > 20 | > 20 | 212 (≈ 403 µM) | > 30 | 0.013 | > 20 | 43.2 | 597 | > 30 | 738 | > 30 | 46.9 | > 30 | 2.2 (≈ 4.18 µM) | 0.013 | > 20 | C[C@@H](Cn1c(=O)[nH]/c(=N\c2ccc(Oc3ccnc(F)c3)cc2)n(Cc2ccc(Cl)cc2)c1=O)C(=O)O | 0.3 | AUC [27]: 4020 ng·h/mL; IC50 [28]: > 20 µM
